Results published in article PMC10356948, “Crystal structures of herbicide-detoxifying esterase reveal a lid loop affecting substrate binding and activity” (Nature Communications, 2023).

Assays:
[1] = molecular target: T1, SulE (Hansschlegelia zhihuaiae, UniProt G9I933, P80R); test: SPR (Biacore T200, protein amine-coupled to CM7 chip), steady-state affinity; assay type: binding
T1 construct: pET-29a(+), E. coli BL21(DE3), C-terminal His6 tag; full-length precursor 398 aa, predicted signal peptide cleavage Ala37/Glu38; homodimer, lid loop of one subunit covers active site of the other; residues 12-360 (mature count) seen in crystal

[2] = molecular target: T2, SulE (Hansschlegelia zhihuaiae, UniProt G9I933); test: as above; assay type: binding
T2 construct: pET-29a(+), E. coli BL21(DE3), C-terminal His6 tag; full-length precursor 398 aa, predicted signal peptide cleavage Ala37/Glu38; homodimer, lid loop of one subunit covers active site of the other; residues 12-360 (mature count) seen in crystal

[3] = molecular target: SulE (wild-type esterase from Hansschlegelia zhihuaiae S113) (Hansschlegelia zhihuaiae S113); test: crystal structure; X-ray crystal structures of purified SulE and mutants; apo-SulE at 1.46 Å, space group P21, two monomers in the asymmetric unit; sitting-drop vapor diffusion at 4 °C; apo-SulE in 0.1 M citric acid-trisodium citrate pH 5.5, 20% PEG 4000; cocrystals and P44R mutants in 0.1 M ammonium tartrate dibasic pH 7.0, 12-15% PEG 3350, with 5 mM substrate
[4] = molecular target: T2, SulE; test: X-ray crystal structure (co-crystal with CE, hydrolysed in crystallisation); assay type: binding; conditions: 5 mM CE, 4 °C, pH 5.5; active site
[5] = molecular target: T3, SulE (Hansschlegelia zhihuaiae, UniProt G9I933, S245A/H369A); test: X-ray crystal structure (co-crystal); assay type: binding; conditions: 5 mM substrate, 4 °C, pH 7.0; active site, catalytically dead mutant
T3 construct: pET-29a(+), E. coli BL21(DE3), C-terminal His6 tag; full-length precursor 398 aa, predicted signal peptide cleavage Ala37/Glu38; homodimer, lid loop of one subunit covers active site of the other; residues 12-360 (mature count) seen in crystal

[6] = molecular target: T4, SulE (Hansschlegelia zhihuaiae, UniProt G9I933, P80R/S245A/H369A); test: X-ray crystal structure (co-crystal); assay type: binding; conditions: 5 mM substrate, 4 °C, pH 7.0; active site, catalytically dead mutant
T4 construct: pET-29a(+), E. coli BL21(DE3), C-terminal His6 tag; full-length precursor 398 aa, predicted signal peptide cleavage Ala37/Glu38; homodimer, lid loop of one subunit covers active site of the other; residues 12-360 (mature count) seen in crystal
T4 sequence (G9I933 entry or part of it P80R/S245A/H369A): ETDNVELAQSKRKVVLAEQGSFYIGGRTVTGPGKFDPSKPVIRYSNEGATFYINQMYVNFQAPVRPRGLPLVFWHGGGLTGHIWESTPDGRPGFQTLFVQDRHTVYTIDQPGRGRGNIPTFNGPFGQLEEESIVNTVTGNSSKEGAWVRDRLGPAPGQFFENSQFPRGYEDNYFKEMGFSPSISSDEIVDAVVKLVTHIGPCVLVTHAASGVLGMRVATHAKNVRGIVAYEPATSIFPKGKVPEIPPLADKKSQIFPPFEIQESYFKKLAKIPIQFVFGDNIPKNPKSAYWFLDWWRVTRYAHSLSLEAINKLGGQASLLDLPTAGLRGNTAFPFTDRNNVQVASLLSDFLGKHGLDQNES

T1 sequence (G9I933 entry or part of it P80R): as the sequence (G9I933 entry or part of it P80R/S245A/H369A) above, with A208S, A332H counted along it
T2 sequence (G9I933 entry or part of it): as the sequence (G9I933 entry or part of it P80R/S245A/H369A) above, with R43P, A208S, A332H counted along it
T3 sequence (G9I933 entry or part of it S245A/H369A): as the sequence (G9I933 entry or part of it P80R/S245A/H369A) above, with R43P counted along it

| Molecule | Kd [1] | Kd [2] | X-ray crystal structure (co-crystal) [5] | further results |
| --- | --- | --- | --- | --- |
| COC(=O)c1sccc1S(=O)(=O)NC(=O)Nc1nc(C)nc(OC)n1 [TM, thifensulfuron-methyl] | 7.25 µM | 8.85 µM | – | – |
| SulE (wild-type esterase from Hansschlegelia zhihuaiae S113) (enzyme) | – | – | – | stoichiometry N [3]: 2 |
| COc1cc(Cl)nc(NC(=O)NS(=O)(=O)c2ccccc2C(=O)O)n1 [CA, chlorimuron acid] | – | – | – | X-ray crystal structure (co-crystal with CE, hydrolysed in crystallisation) [4]: crystal structures of wild-type SulE in complex with CA |
| COC(=O)c1ccccc1CS(=O)(=O)NC(=O)Nc1nc(OC)cc(OC)n1 [BM, bensulfuron-methyl] | 5.75 µM | 6.34 µM | – | – |
| CCOC(=O)c1ccccc1S(=O)(=O)NC(=O)Nc1nc(Cl)cc(OC)n1 [CE, chlorimuron-ethyl] | 1.36 µM | 5.29 µM | – | – |
| COC(=O)c1ccccc1S(=O)(=O)NC(=O)N(C)c1nc(C)nc(OC)n1 [TrM, tribenuron-methyl] | – | – | mutant S209A/H333A in complex with MM, SM, TM, TrM, EM, BM, and CE | – |
| CCOc1nc(NC)nc(NC(=O)NS(=O)(=O)c2ccccc2C(=O)OC)n1 [EM, ethametsulfuron-methyl] | – | – | mutant S209A/H333A in complex with MM, SM, TM, TrM, EM, BM, and CE | – |
| COC(=O)c1ccccc1S(=O)(=O)NC(=O)Nc1nc(C)nc(OC)n1 [MM, metsulfuron-methyl] | 2.89 µM | 5.58 µM | mutant S209A/H333A in complex with MM, SM, TM, TrM, EM, BM, and CE | X-ray crystal structure (co-crystal) [6]: the triple mutant P44R/S209A/H333A in complex with MM, CE, and TM |
